According to paper PMC11325506 (ACS Omega, 2024):

Columns and labels:
Assay type in all cases: cell-based
[1] = tested on: Mycobacterium tuberculosis, strain H37Ra; assay: Antimycobacterial activity against M. tuberculosis H37Ra (luminescence, dose-response); conditions: for IC50: Mycobacterium tuberculosis, 168 h, H37Ra lux, luminescence at day 7, top concentration 64 μM; for SI (selectivity index): calculated with the formula CC50/IC50 (MRC-5 cytotoxicity / H37Ra); for activity against Mtb H37Ra (in words): SAR discussion
Mycobacterium abscessus = assay: microbe, parasite or virus in culture; conditions: Mycobacteroides abscessus, 72 h, read-out: IC50 against M. abscessus
[2] = In vitro cytotoxicity, resazurin assay; conditions: human, MRC-5 fibroblast cells (ATCC CCL-171), 3 days exposure
Procedure: In vitro cytotoxicity was evaluated on the MRC-5 Homo sapiens […] fibroblast cell line (ATCC CCL-171). The MRC-5 cells were cultured in 75 cm^2 sterile Dulbecco’s modified Eagle’s medium (DMEM) supplemented with 10% heat-inactivated fetal calf serum in a 5% CO2 atmosphere at 37 °C. When a semiconfluent layer of cells was formed, the cells were trypsinized, washed with sterile PBS, seeded into a transparent, flat-bottomed 96-well plate at a density of 4 × 10^4 cells per well and left for recovery at 37 °C, 5% CO2 for at least 24 h. For each compound, a 2-fold serial dilution was made in complete DMEM with final concentrations ranging from 128 μM to 0.5 μM. Subsequently, the MRC-5 cells were exposed to the compounds by adding 100 μL of the serial dilutions to the wells. Test plates were incubated for 3 days in an atmosphere of 5% CO2 at 37 °C. For the resazurin assay, the cells were washed 2 times with 200 μL PBS, and 100 μL resazurin working solution was added per well. Subsequently, the plates were incubated at 37 °C, 5% CO2 for 3 h. To monitor the viable cell number after compound exposure, each well was analyzed using a microplate fluorometer equipped with a 560 nm excitation/590 nm emission filter set.

Row | SMILES | IC50 [1] [µM] | SI (selectivity index) [1] | also measured
1 | COc1nc2ccc(Br)cc2cc1[C@@H](c1ccccc1)[C@@](O)(CCN(C)C)c1cccc2ccccc12 [Bedaquiline, reference compound] | 0.01 | – | –
2 | Cc1ccc(-c2c(NCc3ccccn3)c(=O)c2=O)cc1 [Compound 6a, 3-((Pyridin-2-ylmethyl)amino)-4-(p-tolyl)cyclobut-3-ene-1,2-dione] | 2.01 | > 31.8 | –
3 | O=c1c(NCc2ccccn2)c(-c2ccc(Br)cc2)c1=O [Compound 6b, 3-(4-Bromophenyl)-4-((pyridin-2-ylmethyl)amino)cyclobut-3-ene-1,2-dione] | 3.49 | > 18.3 | –
4 | O=c1c(NCc2ccccn2)c(-c2ccc(O)cc2)c1=O [Compound 6c, 3-(4-Hydroxyphenyl)-4-((pyridin-2-ylmethyl)amino)cyclobut-3-ene-1,2-dione] | 21.9 | > 2.9 | –
5 | O=c1c(NCc2ccccn2)c(-c2ccc(OC(F)(F)F)cc2)c1=O [Compound 6d, 3-((Pyridin-2-ylmethyl)amino)-4-(4-(trifluoromethoxy)phenyl)cyclobut-3-ene-1,2-dione] | 13.8 | > 4.6 | –
6 | CSc1ccc(-c2c(NCc3ccccn3)c(=O)c2=O)cc1 [Compound 6e, 3-(4-(Methylthio)phenyl)-4-((pyridin-2-ylmethyl)amino)cyclobut-3-ene-1,2-dione] | 4.56 | > 14.0 | –
7 | CC(C)(C)Oc1ccc(-c2c(NCc3ccccn3)c(=O)c2=O)cc1 [Compound 6f, 3-(4-(tert-Butoxy)phenyl)-4-((pyridin-2-ylmethyl)amino)cyclobut-3-ene-1,2-dione] | 4.67 | > 13.7 | –
8 | COCCOc1ccc(-c2c(NCc3ccccn3)c(=O)c2=O)cc1 [Compound 6g, 3-(4-(2-Methoxyethoxy)phenyl)-4-((pyridin-2-ylmethyl)amino)cyclobut-3-ene-1,2-dione] | 8.69 | > 7.4 | –
9 | O=c1c(NCc2ccccn2)c(-c2ccc(Oc3ccccc3)cc2)c1=O [Compound 6h, 3-(4-Phenoxyphenyl)-4-((pyridin-2-ylmethyl)amino)cyclobut-3-ene-1,2-dione] | > 64 | – | –
10 | O=c1c(NCc2ccccn2)c(-c2ccc(OCc3ccccc3)cc2)c1=O [Compound 6i, 3-(4-(Benzyloxy)phenyl)-4-((pyridin-2-ylmethyl)amino)cyclobut-3-ene-1,2-dione] | > 64 | – | –
11 | O=c1c(NCc2ccccn2)c(-c2ccc(OCc3ccc(F)cc3)cc2)c1=O [Compound 6j, 3-(4-((4-Fluorobenzyl)oxy)phenyl)-4-((pyridin-2-ylmethyl)amino)cyclobut-3-ene-1,2-dione] | > 64 | – | –
12 | O=c1c(NCc2ccccn2)c(-c2ccc(OCc3ccccc3)c(Cl)c2)c1=O [Compound 6k, 3-(4-(Benzyloxy)-3-chlorophenyl)-4-((pyridin-2-ylmethyl)amino)cyclobut-3-ene-1,2-dione] | > 64 | – | –
13 | COc1ccc(-c2c(NCc3ccccn3)c(=O)c2=O)cc1Cl [Compound 6l, 3-(3-Chloro-4-methoxyphenyl)-4-((pyridin-2-ylmethyl)amino)cyclobut-3-ene-1,2-dione] | 1.51 | > 42.4 | –
14 | O=c1c(NCc2ccccn2)c(-c2ccc(Cl)cc2C(F)(F)F)c1=O [Compound 6m, 3-(4-Chloro-2-(trifluoromethyl)phenyl)-4-((pyridin-2-ylmethyl)amino)cyclobut-3-ene-1,2-dione] | > 64 | – | –
15 | O=c1c(NCc2ccccn2)c(-c2ccc(F)c(F)c2)c1=O [Compound 6n, 3-(3,4-Difluorophenyl)-4-((pyridin-2-ylmethyl)amino)cyclobut-3-ene-1,2-dione] | 2.46 | > 26.0 | –
16 | COc1ccc(-c2c(NCc3ccccn3)c(=O)c2=O)c(F)c1F [Compound 6o, 3-(2,3-Difluoro-4-methoxyphenyl)-4-((pyridin-2-ylmethyl)amino)cyclobut-3-ene-1,2-dione] | > 64 | – | –
17 | CCCOc1ccc(-c2c(NCc3ccccn3)c(=O)c2=O)c(F)c1F [Compound 6p, 3-(2,3-Difluoro-4-propoxyphenyl)-4-((pyridin-2-ylmethyl)amino)cyclobut-3-ene-1,2-dione] | > 64 | – | activity against Mtb H37Ra (in words) [1]: completely inactive
18 | CCCCOc1ccc(-c2c(NCc3ccccn3)c(=O)c2=O)c(F)c1F [Compound 6q, 3-(4-Butoxy-2,3-difluorophenyl)-4-((pyridin-2-ylmethyl)amino)cyclobut-3-ene-1,2-dione] | > 64 | – | activity against Mtb H37Ra (in words) [1]: completely inactive
19 | CCOc1c(C)cc(-c2c(NCc3ccccn3)c(=O)c2=O)cc1C [Compound 6r, 3-(4-Ethoxy-3,5-dimethylphenyl)-4-((pyridin-2-ylmethyl)amino)cyclobut-3-ene-1,2-dione] | 13.5 | > 4.7 | –
20 | O=c1c(NCc2ccccn2)c(-c2cccc3ccccc23)c1=O [Compound 6s, 3-(Naphthalen-1-yl)-4-((pyridin-2-ylmethyl)amino)cyclobut-3-ene-1,2-dione] | > 64 | – | –
21 | COc1ccc(-c2c(NCc3ccccn3)c(=O)c2=O)c2ccccc12 [Compound 6t, 3-(4-Methoxynaphthalen-1-yl)-4-((pyridin-2-ylmethyl)amino)cyclobut-3-ene-1,2-dione] | > 64 | – | –
22 | O=c1c(NCc2ccccn2)c(-c2ccc3c(c2)OCO3)c1=O [Compound 6u, 3-(Benzo[d][1,3]dioxol-5-yl)-4-((pyridin-2-ylmethyl)amino)cyclobut-3-ene-1,2-dione] | 19.9 | > 3.2 | –
23 | O=c1c(NCc2ccccn2)c(-c2ccc3c(c2)OCCO3)c1=O [Compound 6v, 3-(2,3-Dihydrobenzo[b][1,4]dioxin-6-yl)-4-((pyridin-2-ylmethyl)amino)cyclobut-3-ene-1,2-dione] | 3.37 | > 19.0 | –
24 | CCOc1ccc2cc(-c3c(NCc4ccccn4)c(=O)c3=O)ccc2c1 [Compound 6w, 3-(6-Ethoxynaphthalen-2-yl)-4-((pyridin-2-ylmethyl)amino)cyclobut-3-ene-1,2-dione] | > 64 | – | activity against Mtb H37Ra (in words) [1]: completely inactive
25 | O=c1c(NCc2ccccn2)c(-c2ccoc2)c1=O [Compound 6x, 3-(Furan-3-yl)-4-((pyridin-2-ylmethyl)amino)cyclobut-3-ene-1,2-dione] | 29.1 | > 2.2 | –
26 | O=c1c(NCc2ccccn2)c(-c2ccsc2)c1=O [Compound 6y, 3-((Pyridin-2-ylmethyl)amino)-4-(thiophen-3-yl)cyclobut-3-ene-1,2-dione] | > 64 | – | –
27 | Cc1ccc(-c2c(NCc3ccccn3)c(=O)c2=O)s1 [Compound 6z, 3-(5-Methylthiophen-2-yl)-4-((pyridin-2-ylmethyl)amino)cyclobut-3-ene-1,2-dione] | 2.98 | > 21.5 | –
28 | COc1c(N2C[C@@H]3CCCN[C@@H]3C2)c(F)cc2c(=O)c(C(=O)O)cn(C3CC3)c12 [Moxifloxacin] | – | – | IC50 (Mycobacterium abscessus): 1.74 µM
29 | CC/C(=C(\c1ccccc1)c1ccc(OCCN(C)C)cc1)c1ccccc1 [Tamoxifen] | – | – | IC50 at 3 days [2]: 12.3 µM
